Assay results published in patent US20080004266A1, “Method for treating proliferative disorders associated with protooncogene products” (priority 2006, published 2008).
Values joined by “and” are separate entries in the source; they are usually repeats but may differ in a detail not shown here. Equal values may be shown once.

Assays:
P815 cells (c-Kit D814Y) = assay: Cell survival in mouse mastacytoma cell line P815 (Cell Counting Kit-8); assay type: cell-based; details: 72 hours
Experimental: Mouse mastacytoma cell line P815 was obtained from the American Type Culture Collection (ATCC; Manassas, Va., USA). […] P815 cells (20,000 cells/well) were cultured in 96-well plates and maintained at 37° C. for several hours. […] 17AAG and 17DMAG are Hsp90 inhibitors that are currently in clinical trials and are used here as positive controls for Hsp90 inhibition. […] Cell survival was measured with Cell Counting Kit-8 (Dojindo Laboratories, Cat # CK04).

[1] = test system: Kasumi-1 cells (c-Kit N822K); assay: Cell survival in Kasumi-1 cells (Cell Counting Kit-8); assay type: cell-based, human; details: Homo sapiens, 72 hours
Experimental: Kasumi-1 cells (20,000 cells/well) were cultured in 96-well plates and maintained at 37° C. for several hours. […] 17AAG and DMAG are Hsp90 inhibitors that are currently in clinical trials and are used here as positive controls for Hsp90 inhibition. […] Cell survival was measured with Cell Counting Kit-8 (Dojindo Laboratories, Cat # CK04).

[2] = test system: human chronic myelogenous leukemia tumor cell line K-562; assay: K-562 (Bcr-Abl) SCID mouse xenograft model; assay type: in vivo, human (xenograft in SCID mouse); details: 35 mg/kg i.v. 5 times per week, day 17
Experimental: Growth of this tumor cell line is dependent upon the expression of the Bcr-Abl fusion protein (C. Gambacarti-Passerini et al., Blood Cells Mol. Dis. 23:380-394, 1997). The cells were cultured in growth media prepared with Iscove's Modified Dulbecco's Media, 10% fetal bovine serum (FBS), 1% 100× Penicillin-Streptomycin, 1% 100× sodium pyruvate and 1% 100×MEM non-essential amino acids. FBS was obtained from ATCC and all other reagents were obtained from Invitrogen Corp. (Carlsbad, Calif., USA). Cells that had been cryopreserved in liquid nitrogen were rapidly thawed at 37° C. and transferred to a tissue culture flask containing growth media and then incubated at 37° C. in a 5% CO2 incubator. […]
Seven to eight week old, female CB17/Icr-Prkdc^scid/Crl (SCID) mice were obtained from Charles River Laboratories (Wilmington, Mass., USA). […] To implant K-562 tumor cells into SCID mice, cell cultures were centrifuged to pellet the cells, the supernatant was aspirated, the cell pellet was resuspended in 10 ml of growth media and the cell number determined using a hemocytometer. […]
Tumors were then permitted to develop in vivo until the majority reached 100-200 mm^3 in tumor volume, which typically required 1-2 weeks following implantation. […] Tumor volumes (V) were calculated by caliper measurement of the width (W), length (L) and thickness (T) of tumors using the following formula: V=0.5236×(L×W×T). […]

K562 cells (Bcr-Abl) = assay: Cell survival in K562 cells (Cell Counting Kit-8); assay type: cell-based, human; details: Homo sapiens, 72 hours
Experimental: Growth of this tumor cell line is dependent upon the expression of the Bcr-Abl fusion protein (C. Gambacarti-Passerini et al., Blood Cells Mol. Dis. 23:380-394, 1997). K562 cells (20,000 cells/well) were cultured in 96-well plates and maintained at 37° C. for several hours. […] 17AAG, DMAG, and Radicical are Hsp90 inhibitors that are currently in clinical trials and are used here as positive controls for Hsp90 inhibition. […] Cell survival was measured with Cell Counting Kit-8 (Dojindo Laboratories, Cat # CK04).

[3] = test system: EGFR (T790M and L858R mutations); assay: Degradation of EGFR in NCI-H1975 cells (Western blot); assay type: cell-based, human; details: 18 hours, 1.0 μM, 0.5 μM and 0.1 μM
Experimental: Non-small cell lung cancer cell line, NCI-H1975 (2×10^6 cells), which harbors both the T790M and the L858R mutations in EGFR and is resistant to erlotinib, was obtained from American Type Culture Collection and was treated with either Compound 226 (1.0 μM, 0.5 μM and 0.1 μM) or 17-AAG (1.0 μM, 0.5 μM and 0.1 μM). After 18 hours, the cells were lysed with 1× lysis buffer and a western blot was perform, and phosphorylated and total EGFR was detected with anti-EGFR antibodies.

NPM-ALK = assay: Degradation of NPM-ALK in Karpas-299 cells (Western blot); assay type: cell-based, human; details: 18 hours
Experimental: Anaplastic large-cell lymphoma cells, Karpas-299 cells (the German resource center for biological material) (2×10^6 cells), which harbor the fusion protein NPM-ALK, were treated (0.05 μM, 0.1 μM and 0.5 μM) with either Compound 226 or 17-AAG. After 18 hours and the cells were lysed with 1× lysis buffer and a western blot was perform using an anti-ALK antibody to detect and phosphorylated NPM-ALK and total NPM-ALK.

CC(C)c1cc(-c2nnc(O)n2-c2ccc3c(ccn3C)c2)c(O)cc1O [Compound 226, 3-(2,4-di-hydroxy-5-isopropyl-phenyl)-4-(1-methyl-indol-5-yl)-5-hydroxy-[1,2,4] triazole]
IC50 for cell survival (comparison) (P815 cells (c-Kit D814Y)): lower IC50 for cell survival than 17AAG, 17DMAG or Gleevec | IC50 [1]: 4 nM | average bodyweight loss relative to the start of the study [2]: −12.4% (+/−1.4 SEM) | % T/C value ([2]; SCID mice, 6 doses, 35 mg/kg): 25% and 24.7% | IC50 (K562 cells (Bcr-Abl)): 14 nM | degradation of phosphorylated and total EGFR [3]: induced degradation phosphorylated and total EGFR more potently than 17AAG | degradation of phosphorylated and total NPM-ALK (NPM-ALK; 0.05 μM and 0.1 μM): partial degradation | degradation of phosphorylated NPM-ALK (NPM-ALK; 0.5 μM): total degradation
